# Entries after “also recorded” stand apart in the source; their conditions may differ. Where no end group is shown, it is not given here.
# What was measured:
# PC-12 cells = conditions: RNA interference of Gpr160; cited from earlier work
# From the text: (§1) When studying neuropathic pain, Yosten et al.[11] found GPR160 to be necessary for CARTp-mediated cell activation in cell culture. […] However, whether GPR160 is a receptor for CART in the b ...
# [1] = system: dorsal horn of the spinal cord; conditions: intrathecal injections; cited from earlier work
# From the text: as §1
# GIP receptor = assay: Proximity ligation assay (PLA) CART-GIP receptor (specificity control); format: binding, rat; conditions: control experiment, goat anti-CART with rabbit anti-GIP receptor
# Protocol: (§2) INS-1 832/13 cells were seeded in 8-well tissue culture chambers (Sarstedt, Nümbrecht, Germany). 10^−7M rat CARTp55-102 (Phoenix Pharmaceuticals, Burlingame, CA) was added to fresh media and cells were incubated for 5 min in a humidified atmosphere (37°C, 5% CO2). Cells were rinsed quickly in ice-cold 1XPBS and then washed twice with ice-cold PBS. Cells were then fixed for 20 min in 4% paraformaldehyde, washed 2 × 10 min in 1XPBS and permeabilized for 15 min in PBS +0.25% Triton X-100. Proximity ligation assay (PLA) (DuoLink In situ Red Starter Kit Goat/Rabbit, Sigma Aldrich) was performed according to the instructions provided by the manufacturers. The following antibody combinations were used for the PLA: goat anti-GPR162 (sc-138323, dilution 1:500, Santa Cruz) with rabbit anti-CART (code 2059A, dilution 1:5000, kindly provided by Dr. Jes T. Clausen, Novo Nordisk, Måløv, Denmark), and goat anti-CART (code sc-18068, dilution 1:400, Santa Cruz) with rabbit anti-GPR162 (code PA5-33655, dilution 1:500, Thermo Scientific). Anti-rabbit GPR160 (code PA5-33650) was combined with anti-goat CART (code sc-18068 from Santa Cruz). Anti-rabbit GNA13 (PA5-100644) was combined with anti-goat GPR162 (sc-138323). Negative controls were omission of both antibodies and the combination of the CART antibody with an antibody toward a receptor with a known ligand. […]
# INS-1 832/13 cells [2] = conditions: cited from earlier work
# From the text: (§3) GPR162 was identified as the most CART-affected orphan receptor in INS-1 832/13 cells. […] By showing that CART binds to GPR162 and that biological effects of CART are reduced or ablated after Gpr162 KD, we propose that GPR162 acts as a CART receptor in beta cells. We also established expression of GPR162 in a majority of human and mouse beta cells. Moderate GPR162 immunoreactivity was evident across the cytoplasm and more intense immunoreact ...
# AtT20 = conditions: exogenous CART; cited from earlier work
# From the text: as §3
# GPR160 = assay: Proximity ligation assay (PLA) CART-GPR160 in INS-1 832/13 cells; format: binding, rat; conditions: 10^-7M CARTp55-102, 15 minutes (Figure S3B), n = 8
# Protocol: as §2, with “10^−7M rat CARTp55-102 (Phoenix Pharmaceuticals, Burlingame, CA) was added to fresh media and cells were incubated for 5 min in a humidified atmosphere (37°C, 5% CO2).” left out
# INS-1 832/13 cells [3] = assay: Whole-cell capacitance measurement (exocytosis), patch-clamp; format: cell-based, rat
# Protocol: Whole-cell capacitance measurement was performed in INS-1 832/13 cells using HEKA EPC10 patch-clamp amplifiers with the software Suite Pulse + X-Chart Extension (version 8.6 or later; HEKA, Lambrecht-Pfalz, Germany) as previously described.[40] Briefly, INS-1 832/13 cells were seeded in Nunc plastic petri dishes one day prior to the measurement. The intracellular pipette solution contained 125 mM Cs-glutamate, 10 mM CsCl, 10 mM NaCl, 1 mM MgCl2, 5 mM HEPES, 3 mM Mg-ATP, 0.1 mM cAMP and 0.05 mM EGTA (pH 7.2 with CsOH). The perfusing extracellular solution was composed of 118 mM NaCl, 20 mM tetraethylammonium chloride, 5.6 mM KCl, 2.6 mM CaCl2, 1.2 mM MgCl2, 5 mM HEPES and 5 mM glucose (pH 7.4), and the temperature was maintained at 32°C.
substance,measurement,setting,value
"CARTp55-102: Rat, mouse CARTp55-102 (Phoenix Pharmaceuticals, Cat#003-62); human form Cat#003-60; cocaine- and amphetamine-regulated transcript peptide (IPIYEKKYGQVPMCDAGEQCAVRKGARIGKLCDCPRGTSCNSFLLKCL; ends and bridges not checked; cysteine pairing not given here)",ERK phosphorylation after Gpr160 RNA interference,PC-12 cells,"RNA interference of Gpr160 prevented CART from activating c-FOS expression and phosphorylation of ERK in vitro in KATO III cells and PC-12 cells, respectively"
same,Phosphorylation of ERK and CREB,[1],induced phosphorylation of ERK and CREB
same,CART-GIP receptor interaction (PLA control),GIP receptor,no interaction was found between CART and the GIP receptor
same,cAMP,INS-1 832/13 cells [2],increase cAMP
same,Activation of AtT20,AtT20,capable of activating AtT20
same,CART-GPR160 interaction (PLA),GPR160,no
same,CART-GPR160 interaction (PLA),GPR160; listed as CART,failed to detect
same,CART-induced increase in capacitance / exocytosis after Gpr162 KD,"INS-1 832/13 cells [3]; Gpr162 KD cells, 10^-7M CARTp55-102 1 h, n = 13-14 cells",abolished; also recorded: near-complete abolishment
same,Increase in capacitance,"INS-1 832/13 cells [3]; control cells, 10^-7M CARTp55-102 for 1 h, 5 mM glucose, 32°C, n = 17 cells",approximately 1.3 -fold

# From paper PMC10709007, “GPR162 is a beta cell CART receptor” (iScience, 2023)
